The source made the active and inactive calls. The calls are words filed in the database; no cut-off is given here.
Legend:
[1] = Lipophilicity, log P of the compound; type: physicochemical; conditions: octanol/water; read-out: logP
[2] = Solubility of the compound in ethanol; type: physicochemical
[3] = target: T1, Biliverdin-producing heme oxygenase (Neisseria meningitidis, UniProt Q9AH50); test: Binding affinity to Neisseria meningitidis wild type apo heme oxygenase expressed in Escherichia coli BL21(DE3) pLysS by spectrofluorimetric analysis
T1 sequence (Q9AH50 whole entry): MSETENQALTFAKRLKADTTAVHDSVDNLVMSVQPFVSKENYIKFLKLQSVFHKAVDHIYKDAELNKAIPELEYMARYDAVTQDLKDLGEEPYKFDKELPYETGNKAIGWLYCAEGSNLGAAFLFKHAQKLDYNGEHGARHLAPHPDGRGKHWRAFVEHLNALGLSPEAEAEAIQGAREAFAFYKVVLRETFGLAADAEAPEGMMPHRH

Heme oxygenase = target: T2, Heme oxygenase (Pseudomonas aeruginosa, UniProt O69002); test: Binding affinity to Pseudomonas aeruginosa MPAO1 wild type apo heme oxygenase by spectrofluorimetric analysis
T2 sequence (O69002 whole entry): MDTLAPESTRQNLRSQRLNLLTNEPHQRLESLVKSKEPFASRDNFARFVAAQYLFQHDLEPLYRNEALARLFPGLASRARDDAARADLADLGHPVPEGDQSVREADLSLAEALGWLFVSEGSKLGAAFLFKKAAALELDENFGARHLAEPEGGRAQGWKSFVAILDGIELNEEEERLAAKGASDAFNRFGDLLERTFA

Pseudomonas aeruginosa [4] = test: Growth inhibition of Pseudomonas aeruginosa MPAO1 at >250 uM after 10 hrs; type: functional
Pseudomonas aeruginosa [5] = test: Growth inhibition of Pseudomonas aeruginosa MPAO1 at >=500 uM after 10 hrs in presence of 40 uM of Fe(3)-pyoverdin; type: functional
Pseudomonas aeruginosa [6] = test: Growth inhibition of Pseudomonas aeruginosa MPAO1 at 500 uM measured up to 6 hrs in presence of 25 uM of hemoglobin; type: functional
[7] = Decrease in heme oxygenase protein expression level in Pseudomonas aeruginosa MPAO1 at 0.5 mM measured every hr for 12 hrs in presence of 40 uM of Fe(3)-pyoverdin by Western blot analysis; type: functional
[8] = Decrease in heme oxygenase protein expression level in Pseudomonas aeruginosa MPAO1 at 0.5 mM measured after 6 hrs in presence of 40 uM of Fe(3)-pyoverdin by Western blot analysis; type: functional
[9] = Decrease in heme oxygenase protein expression level in Pseudomonas aeruginosa MPAO1 at 0.5 mM measured every hr for 12 hrs in presence of 25 uM of hemoglobin by Western blot analysis; type: functional
[10] = Solubility of the compound in methanol; type: physicochemical
Pseudomonas aeruginosa [11] = test: Growth inhibition of Pseudomonas aeruginosa MPAO1 assessed as cell growth recovery up to 1500 uM after 10 hrs in presence of 40 uM of Fe(3)-pyoverdin relative to control; type: functional; set-up: scale not given: the % may be the effect or the level left
Pseudomonas aeruginosa [12] = test: Growth inhibition of Pseudomonas aeruginosa MPAO1 assessed as induction of slower cell growth at 500 uM measured up to 6 hrs; type: functional
Pseudomonas aeruginosa [13] = test: Antimicrobial activity against Pseudomonas aeruginosa MPAO1 after 10 hrs; type: functional; conditions: MPAO1, 10 h
Pseudomonas aeruginosa [14] = test: Antimicrobial activity against Pseudomonas aeruginosa MPAO1 infected in Caenorhabditis elegans assessed as prolongation of survival of infected worms; type: functional
[15] = Solubility of the compound in methanol/ethanol; type: physicochemical

Compound: O=C(CNc1ccc2ccccc2c1)N/N=C/c1ccccn1
- logP [1]: 3.16
- solubility [2]: Insoluble

Compound: C(=N\Nc1nc(-c2cccnc2)cs1)/c1cccnc1
- logP [1]: 4.24
- Kd ([3]; read-out: Kd): 15.6 µM
- Kd (Heme oxygenase; read-out: Kd): 20.9 µM
- growth inhibition (GI) (Pseudomonas aeruginosa [4]): Active
- growth inhibition (GI) (Pseudomonas aeruginosa [5]): Active
- growth inhibition (GI) (Pseudomonas aeruginosa [6]): Active
- Activity [7]: Active
- Activity [8]: Active
- Activity [9]: Active
- solubility [10]: Insoluble
- Activity (Pseudomonas aeruginosa [11]): 40%
- Activity (Pseudomonas aeruginosa [12]): Active

Compound: NNC(=O)c1cccc2cc[nH]c12
- logP [1]: 0.8
- solubility [2]: Insoluble

Compound: O=C(O)CSc1ncnc2ccccc12
- logP [1]: 1.46
- MIC50 (Pseudomonas aeruginosa [13]): > 1000 mg/L
- solubility [10]: Insoluble

Compound: CC(=O)Oc1ccc(-c2cccc(C(=O)O)c2)cc1
- logP [1]: 3.51
- MIC50 (Pseudomonas aeruginosa [13]): > 1000 mg/L
- solubility [10]: Soluble

Compound: CCN(CC)c1ccc(/C=N/n2nnnc2N)c(O)c1
- logP [1]: 1.17
- Kd [3]: Active
- Kd (Heme oxygenase): Active
- solubility [10]: Soluble

Compound: COc1ccc(-c2nn(CCC#N)c(=O)[nH]2)cc1
- logP [1]: 1.15
- solubility [2]: Soluble

Compound: O=[N+]([O-])c1cccc(/C=N/Nc2ccc(S(=O)(=O)O)cc2)c1
- logP [1]: 4.62
- MIC50 (Pseudomonas aeruginosa [13]): > 1000 mg/L
- solubility [10]: Insoluble

Compound: O=C(O)c1cccc(NCN2C(=O)c3ccc([N+](=O)[O-])cc3C2=O)c1
- logP [1]: 2.13
- solubility [2]: Insoluble

Compound: Cc1n[nH]c(Nc2ccccc2F)c1[N+](=O)[O-]
- logP [1]: 2.63
- solubility [2]: Insoluble

Compound: NC(=O)c1ccc(NC(=O)/C=C\C(=O)O)cc1Cl
- logP [1]: 0.79
- Kd ([3]; read-out: Kd): 239 µM
- Kd (Heme oxygenase; read-out: Kd): 187 µM
- solubility [10]: Soluble

Compound: COc1ccc(C(=O)/C=C/Nc2ccccc2C#N)cc1
- logP [1]: 2.82
- solubility [2]: Insoluble

Compound: O=C(Nc1ccc(-c2cn3ccccc3n2)cc1)c1ccccc1[N+](=O)[O-]
- logP [1]: 3.56
- MIC50 (Pseudomonas aeruginosa [13]): > 380 mg/L
- solubility [10]: Soluble

Compound: Cn1c(=N)n(CC(=O)O)c2ccccc21
- logP [1]: 1.6
- solubility [2]: Soluble

Compound: CN(C)c1ccc(/C=N/NC(=N)N)cc1
- logP [1]: 3.77
- Activity (Pseudomonas aeruginosa [14]): Active
- solubility [10]: Soluble

Compound: COc1cc(CC(=O)O)c([N+](=O)[O-])cc1OC
- logP [1]: 1.3
- solubility [2]: Insoluble

Compound: O=C(O)c1ccc2c(c1)-c1nc3ccccc3n1C2=O
- logP [1]: 2.52
- solubility [2]: Insoluble

Compound: O=C(O)Cn1c(=O)c2cc3c(=O)n(CC(=O)O)c(=O)c3cc2c1=O
- logP [1]: -0.68
- Kd ([3]; read-out: Kd): 20.9 µM
- Kd (Heme oxygenase; read-out: Kd): 6.1 µM
- solubility [10]: Insoluble

Compound: O=C(O)CN1C(=O)c2ccccc2C1=O
- logP [1]: 0.58
- solubility [10]: Soluble
- solubility [2]: Soluble

Compound: Cc1ccc(S(=O)(=O)NC(=O)NCc2ccco2)cc1
- logP [1]: 1.2
- solubility [2]: Insoluble

Compound: O=[N+]([O-])c1cccc(CN2CCNCC2)c1
- logP [1]: 1.18
- MIC50 (Pseudomonas aeruginosa [13]): > 1000 mg/L
- solubility [10]: Soluble

Compound: O=C(O)C(=O)Cc1c[nH]c2ccccc12
- logP [1]: 1.59
- Kd [3]: Active
- Kd (Heme oxygenase): Active
- solubility [2]: Soluble

Compound: Nc1cc(-c2ccc(F)cc2)nc(N)n1
- logP [1]: 1.07
- Kd [3]: Active
- Kd (Heme oxygenase): Active
- solubility [2]: Soluble

Compound: O=[N+]([O-])c1cccc(-c2noc(Cc3ccccc3)n2)c1
- logP [1]: 3.33
- solubility [2]: Insoluble

Compound: O=[N+]([O-])c1ccc(O)c(/C=N/c2cccc(CO)c2)c1
- logP [1]: 2.71
- solubility [15]: Insoluble

Compound: NC(=O)NC(=O)C[n+]1ccc(C(N)=O)cc1
- logP [1]: -1.11
- solubility [2]: Insoluble

Compound: CN(CC(=O)O)c1nc2ccc([N+](=O)[O-])cc2s1
- logP [1]: 1.92
- Kd [3]: Active
- Kd (Heme oxygenase): Active
- solubility [10]: Soluble

Compound: COc1cc(/C=N/Cc2ccco2)ccc1O
- logP [1]: 2.07
- Kd [3]: Active
- Kd (Heme oxygenase): Active
- solubility [10]: Soluble

Compound: Cc1cc(O)nc(-c2ccc(C(N)=O)cc2)n1
- logP [1]: 0.86
- solubility [2]: Insoluble

Compound: Nc1cnccc1C(=O)O
- logP [1]: 0.32 to 3
- Kd ([3]; read-out: Kd): 33.5 µM
- Kd (Heme oxygenase; read-out: Kd): 44.7 µM

Compound: O=C(O)CCn1ncc2ccccc21
- logP [1]: 0.91
- solubility [2]: Soluble

Compound: O=C(O)/C=C\C(=O)Nc1ccc(OCC(=O)O)cc1
- logP [1]: 0.6
- solubility [10]: Soluble

Compound: Cc1ccccc1C(=O)Nc1cc(C(=O)O)cc(C(=O)O)c1
- logP [1]: 2.62
- Kd ([3]; read-out: Kd): 28.8 µM
- Kd (Heme oxygenase; read-out: Kd): 72.8 µM
- solubility [10]: Insoluble

Compound: CN(C)c1ccc(/C=N/n2nnnc2N)cc1
- logP [1]: 0.76
- Kd ([3]; read-out: Kd): 14.1 µM
- Kd (Heme oxygenase; read-out: Kd): 15.8 µM
- growth inhibition (GI) (Pseudomonas aeruginosa [4]): Active

Compound: COc1ccc(C(=O)CCC(=O)O)c(C)c1
- logP [1]: 1.6
- Kd [3]: Active
- Kd (Heme oxygenase): Active
- solubility [2]: Soluble

Compound: O=C1C=C(Nc2ccccc2O)c2ccccc2C1=O
- logP [1]: 2.8
- solubility [2]: Soluble

Compound: O=C(NCCOc1ccccc1)C(=O)Nc1ccccc1
- logP [1]: 1.77
- solubility [10]: Insoluble

Compound: N#CC(C#N)=CNNC(=O)CNC(=O)c1ccccc1[N+](=O)[O-]
- logP [1]: -0.72
- solubility [2]: Insoluble

Compound: O=C(NCc1ccco1)c1cc(C(=O)NCc2ccco2)cc([N+](=O)[O-])c1
- logP [1]: 1.56
- solubility [10]: Soluble

Compound: CN1CCN(CCCn2cnc3c2c(=O)n(C)c(=O)n3C)CC1
- logP [1]: -0.76
- solubility [10]: Soluble

Compound: Cc1cc(C)nc(NC(=N)Nc2ccc(C(=O)O)cc2)n1
- logP [1]: 1.62
- solubility [10]: Soluble

Compound: O=C(O)c1ccc2c(c1)C(=O)N(CCO)C2=O
- logP [1]: 0.09
- solubility [10]: Soluble

Compound: O=C(Cc1n[nH]c(=O)[nH]c1=O)N/N=C/c1cccc([N+](=O)[O-])c1
- logP [1]: 0.86
- solubility [2]: Insoluble

Compound: Cc1c(OC(C)C(=O)O)ccc2c3c(c(=O)oc12)CCC3 (stereo unspecified)
- logP [1]: 2.6
- solubility [10]: Insoluble
